Experimental data reported in patent US20200095223A1, “NOVEL TRIAZOLETHIONE DERIVATIVES” (priority 2017, published 2020).

test: Log P by HPLC on reversed phase columns (EEC directive 79/831 Annex V.A8); type: physicochemical; details: reversed phase HPLC column; method [a]: LC-UV, acidic range, 0.1% formic acid in water and acetonitrile as eluent
Description: Log P values: […] If more than one Log P value is available within the same method, all the values are given and separated by “+”. Calibration was done with straight-chain alkan2-ones (with 3 to 16 carbon atoms) with known Log P values (measurement of Log P values using retention times with linear interpolation between successive alkanones). Lambda-max-values were determined using UV-spectra from 200 nm to 400 nm and the peak values of the chromatographic signals.

Compound | chromatographic logP
OC(Cn1nc[nH]c1=S)(c1ccc(Oc2ccccc2)nc1C(F)(F)F)C1CC1 (centres unmarked) [I-S-06, 2-[2-cyclopropyl-2-hydroxy-2-[6-phenoxy-2-(trifluoromethyl)-3-pyridyl]ethyl]-4H-1,2,4-triazole-3-thione] | 3.27
CC(O)(Cn1nc[nH]c1=S)c1ccc(Oc2ccccc2)nc1C(F)(F)F (centres unmarked) [I-S-02, 2-[2-hydroxy-2-[6-phenoxy-2-(trifluoromethyl)-3-pyridyl]propyl]-4H-1,2,4-triazole-3-thione] | 2.66
CC(O)(Cn1nc[nH]c1=S)c1ccc(Oc2ccc(Br)cc2)nc1C(F)(F)F (centres unmarked) [I-S-01, 2-[2-[6-(4-bromophenoxy)-2-(trifluoromethyl)-3-pyridyl]-2-hydroxy-propyl]-4H-1,2,4-triazole-3-thione] | 3.21
OC(Cn1nc[nH]c1=S)(c1ccc(Oc2ccc(Br)cc2)nc1C(F)(F)F)C1CC1 (centres unmarked) [I-S-04, 2-[2-[6-(4-bromophenoxy)-2-(trifluoromethyl)-3-pyridyl]-2-cyclopropyl-2-hydroxy-ethyl]-4H-1,2,4-triazole-3-thione] | 3.87
CC(O)(Cn1nc[nH]c1=S)c1ccc(Oc2ccc(Cl)cc2)nc1C(F)(F)F (centres unmarked) [I-S-03, 2-[2-[6-(4-chlorophenoxy)-2-(trifluoromethyl)-3-pyridyl]-2-hydroxy-propyl]-4H-1,2,4-triazole-3-thione] | 3.11
